Test results reported in patent US11078193B2 (priority 2014, dated 2021).

Assays:
[1] = tested on: HBV; assay: anti HBV activity, HepG2.117 inducibly HBV producing cell line (Tet-off), intracellular HBV DNA by realtime PCR; format: cell-based; details: Hepatitis B virus, 72 h, HepG2.117 cells, 3 days of treatment
[2] = Cytotoxicity, HepG2 cells, Resazurin assay; format: cell-based; details: human

Compound | EC50 [1] [nM] | CC50 at 4 days [2] [nM]
CC[C@@H](C)NS(=O)(=O)c1cn(C)c(C(=O)Nc2ccnc(C(F)F)c2)c1F [Compound 86, N-[2-(difluoromethyl)-4-pyridyl]-3-fluoro-1-methyl-4-[[(1R)-1-methylpropyl]sulfamoyl]pyrrole-2-carboxamide] | 40 | 21600
C[C@@H](NS(=O)(=O)c1cn(C)c(C(=O)Nc2ccc(F)c(Cl)n2)c1Cl)C(F)(F)F [Compound 75, 3-chloro-N-(6-chloro-5-fluoro-2-pyridyl)-1-methyl-4-[[(1R)-2,2,2-trifluoro-1-methyl-ethyl]sulfamoyl]pyrrole-2-carboxamide] | 60 | > 25000
Cn1cc(S(=O)(=O)NC2(C(F)(F)F)CCC2)c(Cl)c1C(=O)Nc1cc(F)nc(F)c1 [Compound 109, 3-chloro-N-(2,6-difluoro-4-pyridyl)-1-methyl-4-[[1-(trifluoromethyl)cyclobutyl]sulfamoyl]pyrrole-2-carboxamide] | 10 | > 25000
Cn1cc(S(=O)(=O)NC2(C)CC(F)(F)C2)c(F)c1C(=O)Nc1ccnc(Br)c1F [Compound 131, N-(2-bromo-3-fluoro-4-pyridyl)-4-[(3,3-difluoro-1-methyl-cyclobutyl)sulfamoyl]-3-fluoro-1-methyl-pyrrole-2-carboxamide] | 20 | > 25000
CC[C@@H](C)NS(=O)(=O)c1cn(C)c(C(=O)Nc2ccnc(Cl)c2)c1F [Compound 69, N-(2-chloro-4-pyridyl)-3-fluoro-1-methyl-4-[[(1R)-1-methylpropyl]sulfamoyl]pyrrole-2-carboxamide] | 30 | > 25000
C[C@@H](NS(=O)(=O)c1cn(C)c(C(=O)Nc2ccnc(Br)c2F)c1Cl)C(C)(F)F [Compound 148, N-(2-bromo-3-fluoro-4-pyridyl)-3-chloro-4-[[(1R)-2,2-difluoro-1-methyl-propyl]sulfamoyl]-1-methyl-pyrrole-2-carboxamide] | 20 | > 25000
CC(C)NS(=O)(=O)c1cn(C)c(C(=O)Nc2ccnc(C(F)(F)F)c2)c1F [Compound 78, 3-fluoro-4-(isopropylsulfamoyl)-1-methyl-N-[2-(trifluoromethyl)-4-pyridyl]pyrrole-2-carboxamide] | 260 | > 25000
Cn1cc(S(=O)(=O)NC2(CF)CCC2)c(F)c1C(=O)Nc1ccnc(C(F)F)c1 [Compound 128, N-[2-(difluoromethyl)-4-pyridyl]-3-fluoro-4-[[1-(fluoromethyl)cyclobutyl]sulfamoyl]-1-methyl-pyrrole-2-carboxamide] | 40 | > 25000
Cn1cc(S(=O)(=O)NC2(C(F)(F)F)CCOCC2)c(Cl)c1C(=O)Nc1ccnc(Cl)c1 [Compound 180, 3-chloro-N-(2-chloro-4-pyridyl)-1-methyl-4-[[4-(trifluoromethyl)tetrahydropyran-4-yl]sulfamoyl]pyrrole-2-carboxamide] | 630 | > 25000
C[C@@H](NS(=O)(=O)c1cn(C)c(C(=O)Nc2ccnc(C(F)F)c2F)c1Cl)C(C)(F)F [Compound 147, 3-chloro-N-[2-(difluoromethyl)-3-fluoro-4-pyridyl]-4-[[(1R)-2,2-difluoro-1-methyl-propyl]sulfamoyl]-1-methyl-pyrrole-2-carboxamide] | 20 | > 25000
C[C@@H](NS(=O)(=O)c1cn(C)c(C(=O)Nc2ccc(F)c(Br)n2)c1Cl)C(F)(F)F [Compound 76, N-(6-bromo-5-fluoro-2-pyridyl)-3-chloro-1-methyl-4-[[(1R)-2,2,2-trifluoro-1-methyl-ethyl]sulfamoyl]pyrrole-2-carboxamide] | 50 | > 25000
C[C@H](NS(=O)(=O)c1cn(C)c(C(=O)Nc2ccnc(Cl)c2)c1F)C(C)(F)F [Compound 59, N-(2-chloro-4-pyridyl)-4-[[(1S)-2,2-difluoro-1-methyl-propyl]sulfamoyl]-3-fluoro-1-methyl-pyrrole-2-carboxamide] | 70 | > 25000
Cn1cc(S(=O)(=O)NC2(C(F)(F)F)CCC2)c(F)c1C(=O)Nc1ccnc(C(F)F)c1 [Compound 119, N-[2-(difluoromethyl)-4-pyridyl]-3-fluoro-1-methyl-4-[[1-(trifluoromethyl)cyclobutyl]sulfamoyl]pyrrole-2-carboxamide] | 5 | > 25000
CC(C)NS(=O)(=O)c1cn(C)c(C(=O)Nc2ccnc(Cl)c2)c1F [Compound 79, N-(2-chloro-4-pyridyl)-3-fluoro-4-(isopropylsulfamoyl)-1-methyl-pyrrole-2-carboxamide] | 150 | > 25000
Cn1cc(S(=O)(=O)NC2(C(F)(F)F)CCC2)c(F)c1C(=O)Nc1ccnc(Br)c1F [Compound 166, N-(2-bromo-3-fluoro-4-pyridyl)-3-fluoro-1-methyl-4-[[1-(trifluoromethyl)cyclobutyl]sulfamoyl]pyrrole-2-carboxamide] | 3 | > 25000
CC(O)C(C)NS(=O)(=O)c1cn(C)c(C(=O)Nc2ccnc(Cl)c2)c1Cl (racemic) [Compound 90, (+/−)-3-chloro-N-(2-chloro-4-pyridyl)-4-[(2-hydroxy-1-methyl-propyl)sulfamoyl]-1-methyl-pyrrole-2-carboxamide] | 450 | > 25000
C[C@@H](NS(=O)(=O)c1cn(C)c(C(=O)Nc2c(F)cnc(F)c2F)c1Cl)C(F)(F)F [Compound 44, 3-chloro-1-methyl-4-[[(1R)-2,2,2-trifluoro-1-methyl-ethyl]sulfamoyl]-N-(2,3,5-trifluoro-4-pyridyl)pyrrole-2-carboxamide] | 640 | > 25000
C[C@@H](NS(=O)(=O)c1cn(C)c(C(=O)Nc2ccnc(C(F)(F)F)c2)c1Cl)C(C)(F)F [Compound 150, 3-chloro-4-[[(1R)-2,2-difluoro-1-methyl-propyl]sulfamoyl]-1-methyl-N-[2-(trifluoromethyl)-4-pyridyl]pyrrole-2-carboxamide] | 90 | > 25000
C[C@@H](NS(=O)(=O)c1cn(C)c(C(=O)Nc2ccnc(C(F)F)c2F)c1Cl)C(F)(F)F [Compound 142, 3-chloro-N-[2-(difluoromethyl)-3-fluoro-4-pyridyl]-1-methyl-4-[[(1R)-2,2,2-trifluoro-1-methyl-ethyl]sulfamoyl]pyrrole-2-carboxamide] | 20 | > 25000
C[C@@H](NS(=O)(=O)c1cn(C)c(C(=O)Nc2nc(F)c(F)cc2F)c1Cl)C(F)(F)F [Compound 184, 3-chloro-1-methyl-4-[[(1R)-2,2,2-trifluoro-1-methyl-ethyl]sulfamoyl]-N-(3,5,6-trifluoro-2-pyridyl)pyrrole-2-carboxamide] | 1200 | > 25000
Cn1cc(S(=O)(=O)NC2(C)CC(F)(F)C2)c(Cl)c1C(=O)Nc1ccnc(Cl)c1F [Compound 114, 3-chloro-N-(2-chloro-3-fluoro-4-pyridyl)-4-[(3,3-difluoro-1-methyl-cyclobutyl)sulfamoyl]-1-methyl-pyrrole-2-carboxamide] | 10 | > 25000
Cn1cc(S(=O)(=O)NC2(C(F)(F)F)CCC2)c(F)c1C(=O)Nc1ccnc(C#N)c1F [Compound 167, N-(2-cyano-3-fluoro-4-pyridyl)-3-fluoro-1-methyl-4-[[1-(trifluoromethyl)cyclobutyl]sulfamoyl]pyrrole-2-carboxamide] | 5 | > 25000
C[C@@H](NS(=O)(=O)c1cc(C(=O)Nc2ccnc(C#N)c2)n(C)c1)C(C)(F)F [Compound 101, N-(2-cyano-4-pyridyl)-4-[[(1R)-2,2-difluoro-1-methyl-propyl]sulfamoyl]-1-methyl-pyrrole-2-carboxamide] | 430 | > 25000
CC[C@@H](C)NS(=O)(=O)c1cn(C)c(C(=O)Nc2ccnc(C#N)c2)c1Cl [Compound 72, 3-chloro-N-(2-cyano-4-pyridyl)-1-methyl-4-[[(1R)-1-methylpropyl]-sulfamoyl]pyrrole-2-carboxamide] | 100 | > 25000
C[C@@H](NS(=O)(=O)c1cc(C(=O)Nc2ccnc(Cl)c2)n(C)c1)C(C)(F)F [Compound 103, N-(2-chloro-4-pyridyl)-4-[[(1R)-2,2-difluoro-1-methyl-propyl]sulfamoyl]-1-methyl-pyrrole-2-carboxamide] | 140 | > 25000
C[C@H](CO)NS(=O)(=O)c1cn(C)c(C(=O)Nc2ccnc(Cl)c2)c1Cl [Compound 89, 3-chloro-N-(2-chloro-4-pyridyl)-4-[[(1R)-2-hydroxy-1-methyl-ethyl]sulfamoyl]-1-methyl-pyrrole-2-carboxamide] | 360 | > 25000
Cn1cc(S(=O)(=O)NC2(C(F)(F)F)CCC2)c(F)c1C(=O)Nc1ccnc(C#N)c1 [Compound 123, N-(2-cyano-4-pyridyl)-3-fluoro-1-methyl-4-[[1-(trifluoromethyl)cyclobutyl]sulfamoyl]pyrrole-2-carboxamide] | 10 | > 25000
C[C@@H](NS(=O)(=O)c1cn(C)c(C(=O)Nc2c(F)c(F)nc(F)c2Cl)c1Cl)C(F)(F)F [Compound 187, 3-chloro-N-(3-chloro-2,5,6-trifluoro-4-pyridyl)-1-methyl-4-[[(1R)-2,2,2-trifluoro-1-methyl-ethyl]sulfamoyl]pyrrole-2-carboxamide] | 710 | > 25000
Cn1cc(S(=O)(=O)NC2(C(F)(F)F)CCC2)c(F)c1C(=O)Nc1ccnc(Cl)c1F [Compound 120, N-(2-chloro-3-fluoro-4-pyridyl)-3-fluoro-1-methyl-4-[[1-(trifluoromethyl)cyclobutyl]sulfamoyl]pyrrole-2-carboxamide] | 5 | > 25000
C[C@@H](NS(=O)(=O)c1cn(C)c(C(=O)Nc2c(Cl)c(F)nc(F)c2Cl)c1Cl)C(F)(F)F [Compound 186, 3-chloro-N-(3,5-dichloro-2,6-difluoro-4-pyridyl)-1-methyl-4-[[(1R)-2,2,2-trifluoro-1-methyl-ethyl]sulfamoyl]pyrrole-2-carboxamide] | 10500 | > 25000
